Key:
[1] = Study 2 blood chemistry; type: in vivo, human; details: for Aspartate Aminotransferase / Gamma-glutamyl: in U/L (unit assumed)
Protocol: (§1) Study 2 design. Study 2 was conducted similar to study 1 with the following modifications. In study 2, plasma levels of HMB were measured for 1440 min (24 h) and total urine collection was also performed for measurement of urinary HMB excretion during this period. After the 180 min blood sample, the subjects were allowed to leave the laboratory and were instructed to return to the laboratory for additional blood samples at 360, 720, and 1440 min after the ingestion of the supplement. As in study 1, each subject took each of the treatments with at least a one week washout period between treatments. Samples were again stored frozen at −70° C. for analysis of plasma and urinary HMB concentrations. Pre-ingestion, 180 min and 1440 min blood samples were again assayed for the same measurements already for study 1. Subjects were provided with a standardized lunch after the 180 min blood sampling and instructed to eat this at approximately 240 min post ingestion. Following the 720 min blood sample, subjects were instructed to eat a normal evening meal before 10 pm. Subjects reported back to the laboratory the following morning for the fasted 1440 min blood sample. A urine collection container was provided and subjects collected all urine produced during the experimental 24 h experimental period. The urine was stored refrigerated when not being collected. Urine volumes were measured and samples of the total urine collection were taken and stored frozen at −70° C. until analyzed for HMB.
(§2) The data were analyzed using a crossover design with Proc GLM in SAS. (45) For the timed sampling of plasma HMB a repeated measures polynomial model was used. The model included subject, order, and treatment main effects and time by treatment interaction where appropriate. For other parameters Proc GLM was also used with subject, order, and treatment main effects and the p values are reported for the treatment main effect. Statistical significance was determined for p<0.05 and a trend was determined for 0.05<p<0.10.

[2] = Study 2 hematology; type: in vivo, human
Protocol: as §1, §2

CC(C)(O)CC(=O)[O-].CC(C)(O)CC(=O)[O-].[Ca+2] [CaHMB, calcium β-hydroxy-β-methylbutryate, reference compound]
A:G Ratio ([1]; After (24 h)): 1.8 ± 0.1 | Alanine Aminotransferase ([1]; After (24 h)): 14.9 ± 2.2 IU/L | Albumin ([1]; After (24 h)): 4.2 ± 0.1 g/dL | Alkaline Phosphatase ([1]; After (24 h)): 66.8 ± 6.9 IU/L | Blood Urea Nitrogen ([1]; After (24 h)): 13.4 ± 1.0 mg/dL | CO2 ([1]; After (24 h)): 27.3 ± 0.6 mEq/L | Chloride ([1]; After (24 h)): 103.0 ± 0.5 mEq/L | Cholesterol Ratio ([1]; After (24 h)): 3.1 ± 0.2 | Creatinine ([1]; After (24 h)): 1.0 ± 0.1 mg/dL | Direct Bilirubin ([1]; After (24 h)): 0.1 ± 0.04 mg/dL | Globulin ([1]; After (24 h)): 2.4 ± 0.1 g/dL | Glucose ([1]; After (24 h)): 80.3 ± 2.4 mg/dL | HDL ([1]; After (24 h)): 54.0 ± 3.5 mg/dL | Iron ([1]; After (24 h)): 59.9 ± 12.2 µg/dL | Iron Binding Capacity ([1]; After (24 h)): 377.5 ± 30.3 µg/dL | Iron Saturation ([1]; After (24 h)): 17.5 ± 4.2% | LDL ([1]; After (24 h)): 88.6 ± 5.9 mg/dL | Lactate Dehydrogenase ([1]; After (24 h)): 142.4 ± 10.5 IU/L | Phosphorus ([1]; After (24 h)): 4.4 ± 0.1 mg/dL | Potassium ([1]; After (24 h)): 4.7 ± 0.1 mEq/L | Protein ([1]; After (24 h)): 6.5 ± 0.2 g/dL | Sodium ([1]; After (24 h)): 141.4 ± 0.5 mEq/L | Total Bilirubin ([1]; After (24 h)): 0.5 ± 0.2 mg/dL | Total Cholesterol ([1]; After (24 h)): 162.9 ± 7.1 mg/dL | Triglycerides ([1]; After (24 h)): 106.9 ± 17.6 mg/dL | UIBC ([1]; After (24 h)): 317.6 ± 38.3 µg/dL | Uric Acid ([1]; After (24 h)): 4.2 ± 0.5 mg/dL | Aspartate Aminotransferase ([1]; After (24 h)): 20.0 ± 1.1 | Gamma-glutamyl ([1]; After (24 h)): 14.3 ± 1.4 | A:G Ratio ([1]; Before): 1.9 ± 0.1 | Alanine Aminotransferase ([1]; Before): 15.4 ± 1.8 IU/L | Albumin ([1]; Before): 4.1 ± 0.1 g/dL | Alkaline Phosphatase ([1]; Before): 65.5 ± 7.3 IU/L | Blood Urea Nitrogen ([1]; Before): 14.8 ± 1.4 mg/dL | CO2 ([1]; Before): 24.9 ± 0.6 mEq/L | Chloride ([1]; Before): 102.4 ± 0.5 mEq/L | Cholesterol Ratio ([1]; Before): 3.1 ± 0.2 | Creatinine ([1]; Before): 1.0 ± 0.1 mg/dL | Direct Bilirubin ([1]; Before): 0.2 ± 0.1 mg/dL | Globulin ([1]; Before): 2.2 ± 0.1 g/dL | Glucose ([1]; Before): 70.8 ± 0.8 mg/dL | HDL ([1]; Before): 52.3 ± 2.7 mg/dL | Iron ([1]; Before): 99.0 ± 20.0 µg/dL | Iron Binding Capacity ([1]; Before): 371.8 ± 28.6 µg/dL | Iron Saturation ([1]; Before): 28.4 ± 5.8% | LDL ([1]; Before): 88.6 ± 7.2 mg/dL | Lactate Dehydrogenase ([1]; Before): 161.8 ± 12.6 IU/L | Phosphorus ([1]; Before): 4.0 ± 0.1 mg/dL | Potassium ([1]; Before): 4.1 ± 0.1 mEq/L | Protein ([1]; Before): 6.4 ± 0.2 g/dL | Sodium ([1]; Before): 139.5 ± 0.8 mEq/L | Total Bilirubin ([1]; Before): 0.6 ± 0.1 mg/dL | Total Cholesterol ([1]; Before): 160.4 ± 8.0 mg/dL | Triglycerides ([1]; Before): 97.4 ± 12.5 mg/dL | UIBC ([1]; Before): 272.8 ± 39.5 µg/dL | Uric Acid ([1]; Before): 4.8 ± 0.3 mg/dL | A:G Ratio % Change ([1]; Before to After): −3.4% | Alanine Aminotransferase % Change ([1]; Before to After): −3.3% | Albumin % Change ([1]; Before to After): 0.6% | Alkaline Phosphatase % Change ([1]; Before to After): 1.9% | Aspartate Aminotransferase % Change ([1]; Before to After): −11.6% | Blood Urea Nitrogen % Change ([1]; Before to After): −9.3% | CO2 % Change ([1]; Before to After): 9.5% | Chloride % Change ([1]; Before to After): 0.6% | Cholesterol Ratio % Change ([1]; Before to After): −0.8% | Creatinine % Change ([1]; Before to After): −1.5% | Direct Bilirubin % Change ([1]; Before to After): −37.4% | Gamma-glutamyl % Change ([1]; Before to After): 1.8% | Globulin % Change ([1]; Before to After): 6.7% | Glucose % Change ([1]; Before to After): 13.4% | HDL % Change ([1]; Before to After): 3.3% | Iron % Change ([1]; Before to After): −39.5% | Iron Binding Capacity % Change ([1]; Before to After): 1.5% | Iron Saturation % Change ([1]; Before to After): −38.3% | LDL % Change ([1]; Before to After): 0.0% | Lactate Dehydrogenase % Change ([1]; Before to After): −12.0% | Phosphorus % Change ([1]; Before to After): 10.6% | Potassium % Change ([1]; Before to After): 14.8% | Protein % Change ([1]; Before to After): 2.8% | Sodium % Change ([1]; Before to After): 1.3% | Total Bilirubin % Change ([1]; Before to After): −17.8% | Total Cholesterol % Change ([1]; Before to After): 1.6% | Triglycerides % Change ([1]; Before to After): 9.8% | UIBC % Change ([1]; Before to After): 16.5% | Uric Acid % Change ([1]; Before to After): −12.0% | Aspartate Aminotransferase ([1]; Before): 22.6 ± 1.4 | Gamma-glutamyl ([1]; Before): 14.0 ± 1.9 | Basophils (absolute) ([2]; After (24 h)): 0.06 ± 0.02 ×10^3/μL | Basophils, % ([2]; After (24 h)): 0.8 ± 0.2% | Eosinophils (absolute) ([2]; After (24 h)): 0.2 ± 0.03 ×10^3/μL | Eosinophils, % ([2]; After (24 h)): 2.6 ± 0.4% | Hematocrit ([2]; After (24 h)): 38.3 ± 1.7% | Hemoglobin ([2]; After (24 h)): 13.3 ± 0.6 g/dL | Lymphocytes (absolute) ([2]; After (24 h)): 2.8 ± 0.3 ×10^3/μL | Lymphocytes, % ([2]; After (24 h)): 42.5 ± 3.5% | MCH ([2]; After (24 h)): 30.7 ± 0.6 pg | MCHC ([2]; After (24 h)): 34.7 ± 0.2 g/dL | MCV ([2]; After (24 h)): 88.5 ± 1.4 fL | Monocytes (absolute) ([2]; After (24 h)): 0.5 ± 0.1 ×10^3/μL | Monocytes, % ([2]; After (24 h)): 8.5 ± 1.5% | Neutrophils (absolute) ([2]; After (24 h)): 3.0 ± 0.2 ×10^3/μL | Neutrophils, % ([2]; After (24 h)): 45.6 ± 3.3% | Platelets ([2]; After (24 h)): 235.9 ± 10.9 ×10^3/μL | RBC ([2]; After (24 h)): 4.3 ± 0.2 ×10^6/µL | RDW ([2]; After (24 h)): 13.4 ± 0.1% | WBC ([2]; After (24 h)): 6.5 ± 0.3 ×10^3/μL | Basophils (absolute) ([2]; Before): 0.06 ± 0.02 ×10^3/μL | Basophils, % ([2]; Before): 0.6 ± 0.2% | Eosinophils (absolute) ([2]; Before): 0.2 ± 0.04 ×10^3/μL | Eosinophils, % ([2]; Before): 2.9 ± 0.5% | Hematocrit ([2]; Before): 38.1 ± 1.8% | Hemoglobin ([2]; Before): 13.2 ± 0.7 g/dL | Lymphocytes (absolute) ([2]; Before): 3.3 ± 0.3 ×10^3/μL | Lymphocytes, % ([2]; Before): 44.8 ± 3.2% | MCH ([2]; Before): 30.6 ± 0.5 pg | MCHC ([2]; Before): 34.7 ± 0.2 g/dL | MCV ([2]; Before): 88.4 ± 1.5 fL | Monocytes (absolute) ([2]; Before): 0.5 ± 0.1 ×10^3/μL | Monocytes, % ([2]; Before): 6.9 ± 0.9% | Neutrophils (absolute) ([2]; Before): 3.3 ± 0.3 ×10^3/μL | Neutrophils, % ([2]; Before): 44.9 ± 3.8% | Platelets ([2]; Before): 228.0 ± 17.6 ×10^3/μL | RBC ([2]; Before): 4.3 ± 0.2 ×10^6/µL | RDW ([2]; Before): 13.4 ± 0.2% | Basophils (absolute) % Change ([2]; Before to After): 0.0% | Basophils, % - % Change ([2]; Before to After): 20.0% | Eosinophils (absolute) % Change ([2]; Before to After): −12.5% | Eosinophils, % - % Change ([2]; Before to After): −8.7% | Hematocrit % Change ([2]; Before to After): 0.7% | Hemoglobin % Change ([2]; Before to After): 0.7% | Lymphocytes (absolute) % Change ([2]; Before to After): −13.5% | Lymphocytes, % - % Change ([2]; Before to After): −5.0% | MCH % Change ([2]; Before to After): 0.2% | MCHC % Change ([2]; Before to After): 0.0% | MCV % Change ([2]; Before to After): 0.1% | Monocytes (absolute) % Change ([2]; Before to After): 5.0% | Monocytes, % - % Change ([2]; Before to After): 23.6% | Neutrophils (absolute) % Change ([2]; Before to After): −9.9% | Neutrophils, % - % Change ([2]; Before to After): 1.7% | Platelets % Change ([2]; Before to After): 3.5% | RBC % Change ([2]; Before to After): 0.7% | RDW % Change ([2]; Before to After): −0.1% | WBC % Change ([2]; Before to After): −10.5%

Source: patent US20210113501A1, “METHOD OF ADMINISTERING BETA-HYDROXY-BETA-METHYLBUTYRATE (HMB)” (Metabolic Technologies, Inc., priority 2009, published 2021)
